Test results taken from a melting point compilation (Tetko et al.; mined from patent text by program, amines drawn as free bases though some values may be those of a salt).

Compound | melting point
c1ccc2[nH]c(-c3cc[nH]n3)nc2c1 | 335 to 338 °C
CN1Cc2c(-c3noc(CN4CCCCC4)n3)ncn2-c2ccc(F)cc2C1=O | 182 to 184 °C
O=[N+]([O-])c1ccc2c(c1)S(=O)(=O)NCN2CCF | 165 to 166 °C
CC(C)(C)c1ccc(Cn2cc(C(=O)C(=O)O)c3cc(-c4ccc(C(C)(C)C)cc4)ccc32)cc1 | 111 to 112 °C
Cc1cc([N+](=O)[O-])cnc1CCCC#N | 51.5 to 53 °C
CCC(OC(C)=O)c1ccc(Cl)c2nc3n(c12)CCCN3c1cnc(N(C)C)cc1C (centres undefined) | 159 to 160 °C
Cc1cc(C=Cc2ccccc2OCC(O)C(N)C(C)C)on1 (centres undefined) | 106 to 108 °C
O=C(NC(=O)c1c(Cl)cccc1OCc1ccccc1)Nc1ccc(C(F)(F)F)cc1 | 264 °C
CC(C)CNCc1cc2cc(NC(=O)c3ccc(C#CC4(O)CCC4)cc3)ccc2n1C | 168 to 169 °C
CNC(=O)C(C)Oc1ncn(-c2cccc(C(F)(F)F)c2)n1 (centres undefined) | 137 to 139 °C
CCCCCCC1C(=O)NC2(C(O)C3C=CCCC3)C(=O)OC12C (centres undefined) | 157 °C
CCOC(=O)c1cc(C)n(-c2cccc(C(N)=O)c2)c1-c1ccccc1 | 209 to 210 °C
C=CCOc1cn(C)c2cc(OCC(F)(F)F)ccc2c1=O | 120 °C
Cc1c(C(=O)Nc2ccc(SCCCO)c(C#N)c2)cnn1-c1ccc(Cl)cc1 | 165 °C
CN(C)C=Cc1ncc([N+](=O)[O-])n1CCc1ccncc1 | 190 to 191 °C
CC(C)CCCC(C)NC(=O)Oc1ccc(Oc2ccc(Cl)cc2)cc1 (centres undefined) | 46 to 48 °C
COC(=O)c1nc(-c2ccc(Cl)c(OC)c2F)nc(O)c1OC | 177 to 179 °C
COc1ccc2c(c1)CN(C(=O)NO)N=C2Cc1c(Cl)cncc1Cl | 155 to 158 °C
CCN(CC)N(C(C)=O)c1nc2cc3nc(N(C(C)=O)N(CC)CC)sc3cc2s1 | 224 to 225 °C
Cc1nc(-c2ccccc2)c(-c2ccccc2)n1CCCCCCNC(=O)Oc1ccccc1F | 129 to 131 °C
CN(C)C=C(C#N)C(=O)c1ccsc1 | 118 to 119 °C
O=c1c2c(N3CCNCC3)cc(Cl)cc2n(Cc2ccccc2)c(=O)n1Cc1ccccc1O | 113 to 130 °C

Compound | melting point
O=C(O)[C@@H]1CCCC[C@H]1C(=O)CS (relative stereo) | 112 to 117 °C
Cc1ccc(C(=O)NC(NC(=S)Nc2cccc([N+](=O)[O-])c2)C(F)(F)F)cc1 (centres undefined) | 185 to 186 °C
Cc1cc2[nH]cc(CSCCN3CC=C(c4ccccc4)CC3)c2cc1C | 123 to 124 °C
CCN(CC)CCCCC(=O)c1ccc2c(c1)C(=O)c1cc(C(=O)CCCCN(CC)CC)ccc1-2 | 108 to 110 °C
CC(=O)c1ccc(C(=O)Nc2ccc(C(C)(C)C)cc2)cc1 | 183 to 184 °C
CCOc1c(C)c(C)c2c(c1C)CCC(C)(COc1ccc(N)cc1)O2 (centres undefined) | 121 to 123 °C
COC(=O)c1sccc1C(C)=O | 59 to 60 °C
CCN1C(=O)C(C)(C)C(=O)N(C)c2cc(CN(CCn3ccc4oc(C)cc4c3=O)Cc3ccccc3C=O)ccc21 | 157 to 158 °C
CC/C=C/CNC(=O)[C@H]1N(C(=O)[C@@H](O)[C@H](Cc2ccccc2)NC(=O)c2cccc(O)c2C)CSC1(C)C | 113 to 115 °C
Cc1c(O)c(=O)ccn1CCCCO | 126 to 128 °C
Fc1ccc(C(Cl)(c2ccccc2)c2ccccc2)cc1 | 88 °C
Clc1c(OCC2CO2)cccc1N1CCCCC1 (centres undefined) | 55 to 57 °C
COc1ccc(Cl)c(S(=O)(=O)NC(=O)c2cn3cc(C(F)(F)F)cc(Br)c3n2)c1 | 191 to 192 °C
CCOc1nn(Cc2ccc(Cl)cc2Cl)cc1CCCO | 58 to 59 °C
c1nnc2c3c(c(NCCN4CCCC4)nn12)CCCC3 | 160 to 162 °C
CCOC(=O)c1c(N2CCN(C=O)CC2)c2cc(C)ccc2n(-c2ccccc2)c1=O | 240 °C
CCNC1C(C)CN(c2c(F)cc3c(=O)c(C(=O)O)cn(C4CC4)c3c2OC)CC1C (centres undefined) | 250 to 252 °C
COc1cccc(-c2cc3ccc(C#N)cc3o2)c1 | 148 to 150 °C
COc1cc2c(cc1F)C(=Cc1ccc(SC)cc1)C(C)=C2CC(=O)O | 172 to 174 °C
COc1cccc(C(CN2CCN(c3cccc(C(F)(F)F)c3)CC2)C2(O)CCCC2)c1 (centres undefined) | 158 to 160 °C
CSc1cnc2cc(Cl)sc2c1O | 235 to 237 °C
Nc1ncnc2c1ncn2C[C@@H](CF)OCP(=O)(O)O | 194 to 197 °C

Continued, values first:

melting point | Compound
299 to 302 °C | Cc1cc2c(cc1C)N=C(c1ccc(-n3c(C)nc4cnccc43)cc1)CC(N)=N2
137 to 138 °C | N#CCCNC(=O)C1CC(CF)(CF)Oc2ccc([N+](=O)[O-])cc21 (centres undefined)
78 to 80 °C | CC(Oc1ncn(-c2ccccc2)n1)C(=O)OCc1ccccc1 (centres undefined)
93 to 94 °C | CCc1c(CO)oc2ccc(Br)cc12
150 to 152 °C | Clc1ccc(C2CC(n3cncn3)c3ccccc3N2)cc1 (centres undefined)
210 to 212 °C | COc1ccnc(CCc2nc3cc(-c4ccc(S(=O)(=O)N5CCOCC5)cc4)cnc3[nH]2)c1
128 to 130 °C | Cc1cc(S(=O)(=O)NC(C)C)c2c(C)ccc(C(C)C)cc1-2
115 to 116 °C | CCCCc1c(/C=C/C(=O)Oc2ccc([N+](=O)[O-])cc2)ccc2c(OC)cccc12
143 to 144 °C | CCN(C=NS(=O)(=O)NC(=O)Nc1nc(OC)cc(OC)n1)CSC
86 to 87 °C | COc1ccc2c(ccn2Cc2ccccc2Br)n1
174 to 175 °C | CCN1CCCC1CNC(=O)c1cccc(NC(=O)N2CCc3cc(SC)c(C(F)(F)F)cc32)c1 (centres undefined)
82.5 to 84 °C | COC(=O)C(=O)c1cc(C(C)(C)C)c(O)c(C(C)(C)C)c1
138 to 139 °C | COc1ccc(C2=Cc3ccc(OCc4ccccc4)cc3OC2O)cc1 (centres undefined)
200 to 205 °C | O=C(O)c1cc(S(=O)(=O)N2CCCCC2)c(Cl)cc1Cl
230 to 233 °C | CC(C)(COc1ccc(-n2cc(C(=O)O)cn2)cc1C#N)C(=O)O
156 °C | CC(C)(C)c1nc(O)cc(OC(F)F)n1
249 to 250 °C | Clc1cccc2c1C1=NCCN1C1C(c3ccccc3)CCN21 (centres undefined)
225 to 226 °C | Cc1ccc2nc(-c3ccc(C#N)cc3)cn2c1
269 to 271 °C | CN(C)Cc1c(-c2ccc(O)cc2)[nH]c2ncnc(Nc3cccc(Cl)c3)c12
58 to 61 °C | CCOCCOCCOCCOc1cc(OCCCCCCCCCCCCOc2ccccc2)cc(N(CC(=O)O)CC(=O)O)c1
171 to 172 °C | COc1ccc(-c2c(Cl)c(CCl)nc3sc4c(c23)CCN(Cc2ccccc2)C4)cc1OC
200 to 202 °C | CC(=Nc1ccc2c(c1)C(=O)c1ccc(N=C(C)N3CCC(C)CC3)cc1C2=O)N1CCC(C)CC1
183 °C | O=C(c1ccc(Cl)cc1)c1ccc2c(c1)Cc1ccccc1-2
154 °C | CCOC(C(N)=O)N(c1ccc(Cl)cc1Cc1c(F)cccc1F)S(=O)(=O)c1ccc(OC)c(OC)c1 (centres undefined)
124 to 125 °C | Fc1ccc2[nH]nc(-c3ccccc3)c2c1
131 to 132 °C | CCNC(=O)CC(c1ccc(OC)c(OC)c1)N1C(=O)c2ccccc2C1=O (centres undefined)
129 to 131 °C | CCCc1nc2c(N)ncc(Br)c2n1CCOCCNS(C)(=O)=O
164 to 166 °C | COc1ccc(N2N=C(N)CC2c2ccccc2)cc1 (centres undefined)

melting point | Compound
217 °C | Clc1cccnc1-c1ccc2[nH]nc(Nc3ncc(CN4CCOCC4)s3)c2c1
108 to 110 °C | N#CC1(c2cccs2)C2CC3CC(C2)CC1C3 (centres undefined)
129 to 131 °C | O=C(O)c1ccccc1C(=O)c1ccc(F)cc1F
252 to 254 °C | O=C1CCc2cc(OCc3ccccc3)c(O)c([N+](=O)[O-])c21
58 to 60 °C | Cc1cc(Oc2ncc(C(F)(F)F)cc2Cl)nn1C(=O)N(C(C)C)C(C)C
66.5 to 67 °C | CCCCCCCCCCCCOc1ccc(CO)cc1
223 to 225 °C | CCn1c(=O)c(-c2cccs2)cc2cnc(Nc3ccccc3)nc21
140 to 141 °C | C=Cc1cc(NC(=O)N2CCN(c3cc(OC)cc(OC)c3)CC2)c(OC)nc1C
122 to 124 °C | O=C1C(Cl)=C(N2CCN(S(=O)(=O)c3ccccc3C(F)(F)F)CC2)C(=O)c2ccccc21
138 to 140 °C | O=[N+]([O-])c1ccc(C2OCc3ccc(CCl)cc3CO2)cc1 (centres undefined)
154 to 155 °C | N#Cc1ccc(N2C(=O)N(CCCCCN3C(=O)N(c4ccc(C#N)c(C(F)(F)F)c4)C(=O)C34CC4)C3(CC3)C2=O)cc1C(F)(F)F
282 °C | CC(C)(C)Oc1ccc(O)c(C(=O)O)c1
132 to 135 °C | O=CC1c2ccccc2C(C=O)c2ccccc21 (centres undefined)
178 to 180 °C | CC(=O)Oc1ccc(-c2ccc3cc(OC(C)=O)ccc3c2)cc1
105 to 107 °C | O=C(c1ccccc1)n1c2c(c3ccccc31)CC(CO)CC2 (centres undefined)
220 to 225 °C | O=C(NO)c1ccc(N2CCCC2)cn1
200 to 201 °C | CONC(=O)c1cc(C(=O)OC)c(O)c2ncc(Cc3ccc(F)cc3)cc12
182 °C | COc1cccc(NC(=O)NCC(=O)N(c2ccccc2)c2ccccc2)c1
182 to 183 °C | COC(=O)c1ccc(-c2nc(-c3ccc(C(F)(F)F)cc3)co2)cc1
58 to 60 °C | O=C(O)COc1cccc(-c2ccccc2OC2OC(CO)C(O)C(O)C2O)c1 (centres undefined)
83 °C | CCN(CC)C(=O)Oc1cc(-c2cccc(Cl)c2)nc2ccccc12
128 to 130 °C | Cc1nc(-c2ccc(C(F)(F)F)cc2)sc1CCOc1ccc(CCC(=O)O)cc1
144 to 146 °C | CC(=O)NC[C@H]1CN(c2ccc(C3CCN(C(=O)OC(C)(C)C)CC3)c(F)c2)C(=O)O1
215 to 217 °C | O=C(O)C1CCCc2c(-c3ccc(Cl)cc3)noc2C1 (centres undefined)
288 to 290 °C | Oc1ccc(-c2cccnc2)cc1O
201 to 202 °C | Cc1ccsc1-c1ccc(C2(C)NC(=O)NC2=O)cc1 (centres undefined)
186 to 189 °C | O=CN(O)C(CS(=O)(=O)c1ccc(-c2ccc(C(F)(F)F)cc2)cc1)c1cccnc1 (centres undefined)
